From patent EP0294069A2, “Purine compounds, process for their preparation, intermediates and pharmaceutical compositions” (priority 1987, dated 1988)
Converted amounts (≈) assume the structure as drawn.

Assays:
[1] = system: HSV-1 (SC16 strain, MRC-5 cells); assay: Plaque reduction test for herpes simplex virus 1; type: cell-based; conditions: Human alphaherpesvirus 1, MRC5, plaque number reduced by 50%
[2] = system: HSV-2 (MS strain, MRC-5 cells); assay: Plaque reduction test for herpes simplex virus 2; type: cell-based; conditions: Human alphaherpesvirus 2, MRC5, plaque number reduced by 50%
Experimental: Cells (Vero or MRC-5) were grown to confluence in 24 well multi-dishes (well diameter = 1.5cm). The drained cell monolayers were each infected with approximately 50 infectious particles of herpes simplex virus 1 (HSV-1; strain HFEM) or herpes simplex virus 2 (HSV-2; strain MS) in 100µl of phosphate-buffered saline. The virus was adsorbed for 1 hour at room temperature. After adsorption, residual inoculum was removed from each well and replaced with 0.5ml of Eagle's MEM containing 5% newborn calf serum and 0.9% agarose (A37). Once the agarose had set, dilutions of the test compound, which had been prepared in Eagle's MEM (containing 5% newborn calf serum), were added, each well receiving 0.5ml of liquid overlay. The test compound was diluted to give the following series of concentrations: 200, 60, 20, 6....0.06µg/ml; final concentrations in the assay ranged, therefore, between 100µg/ml and 0.03µg/ml. […]
Cultures were fixed in formal saline, the agarose overlays were carefully washed off, and then the cell monolayers were stained with carbol fuchsin. […] The IC₅₀ (concentration to drug which inhibits plaque number by 50% relative to the number of plaques observed in virus control monolayers) of the test compound was calculated. In addition, the monolayers were examined for evidence of drug-induced cytotoxicity; the minimum concentration at which cytotoxicity occurs was recorded.

[3] = system: Visna Virus (K184 strain in SCP cells); assay: CPE inhibition test (established monolayer) for lentiviruses; type: cell-based; conditions: Visna-maedi virus
Experimental: 3 x 10⁴ sheep choroid plexus (SCP) cells were plated into individual wells of a 96 well microtitre plate in 100µl of Eagle's MEM with Hanks salts containing 10% heat inactivated foetal calf serum (FCS). When monolayers had become established (after l or 2 days growth) they were washed with 200µl of maintenance medium (Eagle's MEM with Hanks salts containing 0.5% FCS) and infected with 100µl of visna virus (strain K184) in maintenance medium (30 TCID₅₀/ml). Test samples were diluted with maintenance medium in further 96 well microtitre plates over the range 200-0.09µg/ml by 3-fold dilution steps. 100µl of the diluted samples was then transferred directly onto virus-infected monolayers (final concentration range therefore 100-0.045µg/ml) and incubated at 37°C in a humidified, 5% CO₂ incubation until virus-induced CPE was maximal in the untreated virus-infected controls (usually 12-14 days). The plates were fixed with formal saline and stained with crystal violet. Virus-induced CPE was then scored microscopically and the minimum concentration of sample giving complete protection of the cell monolayers (MIC) determined.

[4] = Drug-induced cytotoxicity in uninfected cell monolayers; type: cell-based; conditions: uninfected cells, not cytotoxic at concentrations up to 100 µg/ml, read-out: concentration at which cytotoxicity occurs
Experimental: Cultures were fixed in formal saline, the agarose overlays were carefully washed off, and then the cell monolayers were stained with carbol fuchsin. A stereo microscope was used to count plaques. The IC₅₀ (concentration to drug which inhibits plaque number by 50% relative to the number of plaques observed in virus control monolayers) of the test compound was calculated. In addition, the monolayers were examined for evidence of drug-induced cytotoxicity; the minimum concentration at which cytotoxicity occurs was recorded.

[5] = Antiviral potency, comparison of isomers (no method given); conditions: as compared with the (R)-isomer

Row | Structure (SMILES) | IC50 [1] | IC50 [2] | IC50 [3] | MCC [4] | potency as an antiviral agent [5]
1 | Nc1nc2c(ncn2OC[C@@H](O)CO)c(=O)[nH]1 [Preparation Example, (S)-9-(2,3-Dihydroxyprop-1-oxy)quanine] | 0.7 µg/mL (≈ 2.9 µM) | 0.06 µg/mL (≈ 0.249 µM) | 10 µg/mL (≈ 41.5 µM) | > 100 µg/mL | –
2 | Nc1ncc2ncn(OC[C@@H](O)CO)c2n1 [Example, (S)-2-Amino-9-(2,3-dihydroxyprop-l-oxy)purine] | – | – | – | – | greater potency
